For 28 compounds, IC50 results are on record in US20210009542A1 (Calico Life Sciences LLC, priority 2018, published 2021).

pIC50: −log10 of the molar value. Counter-ions that a name gives are not always drawn.

This assay addresses T1, His tagged PTPN2 (TC45) protein (Homo sapiens, UniProt P17706).
T1 construct: made in house
T1 sequence (P17706 with tags, fused parts or gaps isoform P17706-2): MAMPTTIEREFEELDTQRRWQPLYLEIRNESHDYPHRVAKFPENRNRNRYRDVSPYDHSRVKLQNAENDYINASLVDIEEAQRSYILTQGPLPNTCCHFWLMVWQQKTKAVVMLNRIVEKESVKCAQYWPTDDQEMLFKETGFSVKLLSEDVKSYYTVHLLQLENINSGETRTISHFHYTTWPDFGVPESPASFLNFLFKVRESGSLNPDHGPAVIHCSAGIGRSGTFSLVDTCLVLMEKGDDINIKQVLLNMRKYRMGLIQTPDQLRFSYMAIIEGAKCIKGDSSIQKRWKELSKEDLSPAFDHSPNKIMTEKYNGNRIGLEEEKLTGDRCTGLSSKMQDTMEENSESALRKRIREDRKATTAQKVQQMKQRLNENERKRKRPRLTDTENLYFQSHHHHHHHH
The assay can be described thus: Mobility shift assay (MSA) for potency of PTPN2 inhibitors. It is filed as biochemical. The note with it: read-out: PTPN2 MSA IC50. Here is the method: Compound activity was determined using in house His tagged PTPN2 (TC45) protein (SEQ ID NO: 1) in an in vitro enzymatic reaction. The enzymatic assay used to determine activity was a mobility shift assay using a LabChip EZ Reader by Caliper Life Sciences. The enzymatic reaction was carried out in assay buffer (50 mM HEPES pH 7.5, 1 mM EGTA, 10 mM EDTA, 0.01% Tween® 20, and 2 mM DTT). The compounds were dispensed on a white 384 well ProxiPlate™ (PerkinElmer Catalog #6008289) plate using the Labcyte Echo at varying concentrations (12 point, 1:3 dilution). The enzyme (at 0.5 nM) was incubated with compound for 10 minutes at room temperature. Then the substrate (phosphorylated insulin receptor probe sequence: ((OG488)-(NH—CH2—CH2—O—CH2—CH2—O—CH2—CO)-T-R-D-I-(PY)-E-T-D-Y-Y-R-K-K-NH2) (SEQ ID NO: 2) was added at […] to the plates and incubated for another 10 minutes at room temperature. Finally, a quench solution (water and 4-bromo-3-(2-oxo-2-propoxyethoxy)-5-(3-{[1-(phenylmethanesulfonyl)piperidin-4-yl]amino}phenyl)thiophene-2-carboxylic acid) was added to the plates, which were then run on the EZ Reader (excitation 488 nm, emission 530 nm) to measure % conversion (the amount of phosphorylated substrate which was de-phosphorylated by PTPN2). […] The % inhibition was then used to calculate the IC50 values.
For `O=C1CN(c2c(O)cc3ccc(CC4CNC4)cc3c2F)S(=O)(=O)N1` [Compound 267, 5-{7-[(azetidin-3-yl)methyl]-1-fluoro-3-hydroxynaphthalen-2-yl}-1λ^6,2,5-thiadiazolidine-1,1,3-trione], the pIC50 is 7.00 to 8.00.

For `O=C1CN(c2c(O)cc3ccc(OCc4cn[nH]c4)cc3c2F)S(=O)(=O)N1` [Compound 133, 5-{1-fluoro-3-hydroxy-7-[(1H-pyrazol-4-yl)methoxy]naphthalen-2-yl}-1λ6,2,5-thiadiazolidine-1,1,3-trione], the negative-log IC50 (pIC50) was 8.00 to 9.00.

`Nc1cccc(CS(=O)(=O)N2CC=C(c3ccc4cc(O)c(N5CC(=O)NS5(=O)=O)c(F)c4c3)C2)c1` [Compound 194, 5-(7-{1-[(3-aminophenyl)methanesulfonyl]-2,5-dihydro-1H-pyrrol-3-yl}-1-fluoro-3-hydroxynaphthalen-2-yl)-1λ^6,2,5-thiadiazolidine-1,1,3-trione]: the negative-log IC50 (pIC50) is above 9.00.

For `Cc1n[nH]c(C)c1COc1ccc2cc(O)c(N3CC(=O)NS3(=O)=O)c(F)c2c1` [Compound 318, 5-{7-[(3,5-dimethyl-1H-pyrazol-4-yl)methoxy]-1-fluoro-3-hydroxynaphthalen-2-yl}-1λ^6,2,5-thiadiazolidine-1,1,3-trione], the pIC50 was 8.00 to 9.00.

Consider `CC(C)COc1ccc2cc(O)c(N3CC(=O)NS3(=O)=O)c(F)c2c1` [Compound 134, 5-[1-fluoro-3-hydroxy-7-(2-methylpropoxy)naphthalen-2-yl]-1λ^6,2,5-thiadiazolidine-1,1,3-trione], for which the pIC50 was below 7.00.

On to `O=C1CN(c2c(O)cc3ccc(C4=CCN(S(=O)(=O)CCC(F)(F)F)C4)cc3c2F)S(=O)(=O)N1` [Compound 287, 5-{1-fluoro-3-hydroxy-7-[1-(3,3,3-trifluoropropane-1-sulfonyl)-2,5-dihydro-1H-pyrrol-3-yl]naphthalen-2-yl}-1λ^6,2,5-thiadiazolidine-1,1,3-trione], for which the negative-log IC50 (pIC50) is above 9.00.

Consider `O=C1CN(c2c(O)c(Br)c3ccc(-c4ccn(S(=O)(=O)C5CC5)c4)cc3c2F)S(=O)(=O)N1` [Compound 231B, 5-{4-bromo-7-[1-(cyclopropanesulfonyl)-1H-pyrrol-3-yl]-1-fluoro-3-hydroxynaphthalen-2-yl}-1λ^6,2,5-thiadiazolidine-1,1,3-trione], for which the negative logarithm of the IC50 (pIC50) is 8.00 to 9.00.

Take `CC(C)NCCOc1ccc2cc(O)c(N3CC(=O)NS3(=O)=O)c(F)c2c1` [Compound 145, 5-(1-fluoro-3-hydroxy-7-{2-[(propan-2-yl)amino]ethoxy}naphthalen-2-yl)-1λ^6,2,5-thiadiazolidine-1,1,3-trione]: the pIC50 was 7.00 to 8.00.

As to `O=C1CN(c2c(O)cc3ccc(CC(F)F)cc3c2F)S(=O)(=O)N1` [Compound 196, 5-[7-(2,2-difluoroethyl)-1-fluoro-3-hydroxynaphthalen-2-yl]-1λ^6,2,5-thiadiazolidine-1,1,3-trione], the negative-log IC50 (pIC50) is 8.00 to 9.00.

For `CNC(=O)CCCOc1ccc2cc(O)c(N3CC(=O)NS3(=O)=O)c(F)c2c1` [Compound 269, 4-{[8-fluoro-6-hydroxy-7-(1,1,4-trioxo-1λ^6,2,5-thiadiazolidin-2-yl)naphthalen-2-yl]oxy}-N-methylbutanamide], the negative logarithm of the IC50 (pIC50) was 8.00 to 9.00.

Consider `O=C1CN(c2c(O)cc3ccc(C(=O)NCC4CC4)cc3c2F)S(=O)(=O)N1` [Compound 136, N-(cyclopropylmethyl)-8-fluoro-6-hydroxy-7-(1,1,4-trioxo-1λ^6,2,5-thiadiazolidin-2-yl)naphthalene-2-carboxamide], for which the negative logarithm of the IC50 (pIC50) is 8.00 to 9.00.

`C[C@@H](O)CCOc1ccc2cc(O)c(N3CC(=O)NS3(=O)=O)c(F)c2c1` [Compound 149, 5-{1-fluoro-3-hydroxy-7-[(3R)-3-hydroxybutoxy]naphthalen-2-yl}-1λ^6,2,5-thiadiazolidine-1,1,3-trione]: the negative-log IC50 (pIC50) was 8.00 to 9.00.

Consider `COCCNCCOc1ccc2cc(O)c(N3CC(=O)NS3(=O)=O)c(F)c2c1` [Compound 138, 5-(1-fluoro-3-hydroxy-7-{2-[(2-methoxyethyl)amino]ethoxy}naphthalen-2-yl)-1λ^6,2,5-thiadiazolidine-1,1,3-trione], for which the pIC50 was 8.00 to 9.00.

Take `Cc1c[nH]c(-c2ccc3cc(O)c(N4CC(=O)NS4(=O)=O)c(F)c3c2)n1` [Compound 225, 5-[1-fluoro-3-hydroxy-7-(4-methyl-1H-imidazol-2-yl)naphthalen-2-yl]-1λ^6,2,5-thiadiazolidine-1,1,3-trione]: the negative logarithm of the IC50 (pIC50) was 7.00 to 8.00.

Consider `O=C1CN(c2c(O)cc3ccc(CCO)cc3c2F)S(=O)(=O)N1` [Compound 175, 5-[1-fluoro-3-hydroxy-7-(2-hydroxyethyl)naphthalen-2-yl]-1λ^6,2,5-thiadiazolidine-1,1,3-trione, Ammonium Salt], for which the pIC50 was 7.00 to 8.00.

In the case of `O=C(O)CNc1ccc2cc(O)c(N3CC(=O)NS3(=O)=O)c(F)c2c1` [Compound 280, {[8-fluoro-6-hydroxy-7-(1,1,4-trioxo-1λ^6,2,5-thiadiazolidin-2-yl)naphthalen-2-yl]amino}acetic acid], the pIC50 was 7.00 to 8.00.

With `CCNCCCc1ccc2cc(O)c(N3CC(=O)NS3(=O)=O)c(F)c2c1` [Compound 140, 5-{7-[3-(ethylamino)propyl]-1-fluoro-3-hydroxynaphthalen-2-yl}-1λ^6,2,5-thiadiazolidine-1,1,3-trione], the negative-log IC50 (pIC50) was 8.00 to 9.00.

For the compound `O=C1CN(c2c(O)cc3ccc(C4CCCNC4)cc3c2F)S(=O)(=O)N1` (stereo not shown) [Compound 191, 5-[1-fluoro-3-hydroxy-7-(piperidin-3-yl)naphthalen-2-yl]-1λ^6,2,5-thiadiazolidine-1,1,3-trione], the pIC50 was 8.00 to 9.00.

As to `O=C1CN(c2c(O)cc3ccc(C4=CCN(S(=O)(=O)c5ccsc5)C4)cc3c2F)S(=O)(=O)N1` [Compound 314, 5-{1-fluoro-3-hydroxy-7-[1-(thiophene-3-sulfonyl)-2,5-dihydro-1H-pyrrol-3-yl]naphthalen-2-yl}-1λ^6,2,5-thiadiazolidine-1,1,3-trione], the negative logarithm of the IC50 (pIC50) was above 9.00.

On to `C[C@H](O)CCCc1ccc2cc(O)c(N3CC(=O)NS3(=O)=O)c(F)c2c1` [Compound 153, 5-{1-fluoro-3-hydroxy-7-[(4S)-4-hydroxypentyl]naphthalen-2-yl}-1λ^6,2,5-thiadiazolidine-1,1,3-trione], for which the pIC50 was 8.00 to 9.00.

As to `O=C1CN(c2c(O)cc3ccc(OCCC4CCCCC4)cc3c2F)S(=O)(=O)N1` [Compound 320, 5-[7-(2-cyclohexylethoxy)-1-fluoro-3-hydroxynaphthalen-2-yl]-1λ^6,2,5-thiadiazolidine-1,1,3-trione], the negative logarithm of the IC50 (pIC50) is above 9.00.

As for `COCc1ccc2cc(O)c(N3CC(=O)NS3(=O)=O)c(F)c2c1` [Compound 229, 5-[1-fluoro-3-hydroxy-7-(methoxymethyl)naphthalen-2-yl]-1λ^6,2,5-thiadiazolidine-1,1,3-trione], the pIC50 was 7.00 to 8.00.

As to `O=C1CN(c2c(O)cc3ccc(OCCNC4CC4)cc3c2F)S(=O)(=O)N1` [Compound 142, 5-{7-[2-(cyclopropylamino)ethoxy]-1-fluoro-3-hydroxynaphthalen-2-yl}-1λ^6,2,5-thiadiazolidine-1,1,3-trione], the pIC50 is 8.00 to 9.00.

Consider `N#CCCCCS(=O)(=O)N1CC=C(c2ccc3cc(O)c(N4CC(=O)NS4(=O)=O)c(F)c3c2)C1` [Compound 293, 5-{3-[8-fluoro-6-hydroxy-7-(1,1,4-trioxo-1λ^6,2,5-thiadiazolidin-2-yl)naphthalen-2-yl]-2,5-dihydro-1H-pyrrole-1-sulfonyl}pentanenitrile], for which the negative-log IC50 (pIC50) is above 9.00.

For `CCNCCOc1ccc2cc(O)c(N3CC(=O)NS3(=O)=O)c(F)c2c1` [Compound 144, 5-{7-[2-(ethylamino)ethoxy]-1-fluoro-3-hydroxynaphthalen-2-yl}-1λ^6,2,5-thiadiazolidine-1,1,3-trione], the negative logarithm of the IC50 (pIC50) is 8.00 to 9.00.

Turning to `O=C1CN(c2c(O)cc3ccc(C4=CCN(CC(F)(F)F)CC4)cc3c2F)S(=O)(=O)N1` [Compound 275, 5-{1-fluoro-3-hydroxy-7-[1-(2,2,2-trifluoroethyl)-1,2,3,6-tetrahydropyridin-4-yl]naphthalen-2-yl}-1λ^6,2,5-thiadiazolidine-1,1,3-trione], the pIC50 is 8.00 to 9.00.

As to `C=C(c1ccc2cc(O)c(N3CC(=O)NS3(=O)=O)c(F)c2c1)c1c(C)c(C)c(C)c(C)c1C` [Compound 241, 5-{1-fluoro-3-hydroxy-7-[1-(pentamethylphenyl)ethenyl]naphthalen-2-yl}-1λ^6,2,5-thiadiazolidine-1,1,3-trione], the negative-log IC50 (pIC50) is below 7.00.

`O=C1CN(c2c(O)cc3ccc(NCC4CC4)cc3c2F)S(=O)(=O)N1` [Compound 202, 5-{7-[(cyclopropylmethyl)amino]-1-fluoro-3-hydroxynaphthalen-2-yl}-1λ^6,2,5-thiadiazolidine-1,1,3-trione]: the pIC50 is 8.00 to 9.00.

Broadly, the pIC50 is the IC50 on a negative log10 scale, so that one unit is a factor of ten.
